Laboratory results reported in the supplement of paper PMC10307832.

Assays:
Assay in all cases: relative viability (nuclei count vs DMSO), 5 days (fraction); higher = more cells survive
Pemetrexed + Tozasertib = compound: Nc1nc2[nH]cc(CCc3ccc(C(=O)N[C@@H](CCC(=O)O)C(=O)O)cc3)c2c(=O)[nH]1 [Pemetrexed] + Cc1cc(Nc2cc(N3CCN(C)CC3)nc(Sc3ccc(NC(=O)C4CC4)cc3)n2)n[nH]1 [Tozasertib] (partner 0.1 µM)
Method in brief: (§1)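 The day after seeding in 1536-well plates, lung cancer cell lines were treated by pin tool with a single drug, or with a fixed anchor-drug dose together with five library-drug doses (not always all listed) in √10 steps. After 5 days, a combined fix-and-stain solution (final 0.05% Triton X-100, 1% formaldehyde, 1 ug/ml Hoechst) was added. Nuclei counted on 4× images gave relative viability as treated counts over vehicle counts, reported as the median of duplicate plates.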

Pemetrexed + Navitoclax = compound: Nc1nc2[nH]cc(CCc3ccc(C(=O)N[C@@H](CCC(=O)O)C(=O)O)cc3)c2c(=O)[nH]1 [Pemetrexed] + CC1(C)CCC(c2ccc(Cl)cc2)=C(CN2CCN(c3ccc(C(=O)NS(=O)(=O)c4ccc(N[C@H](CCN5CCOCC5)CSc5ccccc5)c(S(=O)(=O)C(F)(F)F)c4)cc3)CC2)C1 [Navitoclax] (partner 0.5 µM)
Method in brief: as §1

Idelalisib + Linsitinib = compound: CC[C@H](Nc1ncnc2[nH]cnc12)c1nc2cccc(F)c2c(=O)n1-c1ccccc1 [Idelalisib] + C[C@]1(O)C[C@@H](c2nc(-c3ccc4ccc(-c5ccccc5)nc4c3)c3c(N)nccn32)C1 [Linsitinib] (partner 1 µM)
Method in brief: as §1

Idelalisib + Alpelisib = compound: CC[C@H](Nc1ncnc2[nH]cnc12)c1nc2cccc(F)c2c(=O)n1-c1ccccc1 [Idelalisib] + Cc1nc(NC(=O)N2CCC[C@H]2C(N)=O)sc1-c1ccnc(C(C)(C)C(F)(F)F)c1 [Alpelisib] (partner 2 µM)
Method in brief: as §1

Cell Line	relative viability (Pemetrexed + Tozasertib; first compound 0.002 µM)	relative viability (Pemetrexed + Tozasertib; first compound 0.006325 µM)	relative viability (Pemetrexed + Tozasertib; first compound 0.02 µM)	relative viability (Pemetrexed + Tozasertib; first compound 0.06325 µM)	relative viability (Pemetrexed + Tozasertib; first compound 0.2 µM)	relative viability (Pemetrexed + Navitoclax; first compound 0.002 µM)	relative viability (Pemetrexed + Navitoclax; first compound 0.006325 µM)	relative viability (Pemetrexed + Navitoclax; first compound 0.02 µM)	relative viability (Pemetrexed + Navitoclax; first compound 0.06325 µM)	relative viability (Pemetrexed + Navitoclax; first compound 0.2 µM)	relative viability (Idelalisib + Linsitinib; first compound 0.04 µM)	relative viability (Idelalisib + Linsitinib; first compound 0.1265 µM)	relative viability (Idelalisib + Linsitinib; first compound 0.4 µM)	relative viability (Idelalisib + Linsitinib; first compound 1.265 µM)	relative viability (Idelalisib + Linsitinib; first compound 4 µM)	relative viability (Idelalisib + Alpelisib; first compound 0.04 µM)	relative viability (Idelalisib + Alpelisib; first compound 0.1265 µM)	relative viability (Idelalisib + Alpelisib; first compound 0.4 µM)	relative viability (Idelalisib + Alpelisib; first compound 1.265 µM)	relative viability (Idelalisib + Alpelisib; first compound 4 µM)
RERF-LC-KJ	0.52	0.477	0.526	0.475	0.325	0.952	0.722	1.31	1.13	0.741	0.973	0.863	0.869	0.789	0.908	0.735	0.71	0.785	0.77	0.645
NCI-H441	0.66	0.484	0.827	0.515	0.342	–	0.457	0.605	0.6	0.48	0.43	0.437	–	0.438	0.41	0.987	0.455	–	0.839	0.611
PC-14	0.661	0.564	0.676	0.416	0.222	0.976	0.976	1.05	0.428	0.129	0.971	0.978	0.929	0.97	0.901	0.992	0.882	0.874	0.983	0.9
NCI-H2009	0.707	0.697	0.855	0.71	0.694	1.15	1.11	1.18	1.12	1.04	1.22	1.28	1.11	1.16	0.887	1.18	1.12	1.14	1.17	1.01
NCI-H1395	0.783	0.721	0.826	0.717	0.79	1.06	1.14	1.24	1.11	1.11	1.15	1.22	0.92	0.82	0.77	1.17	0.987	0.974	1.15	0.694
NCI-H1437	–	0.402	0.37	0.357	0.228	0.988	1.05	1.02	0.575	0.291	1.05	1.09	0.974	1.02	1.05	0.947	1.07	0.892	0.84	0.748
NCI-H647	0.309	0.246	0.297	0.208	0.128	1.13	0.987	1.15	0.954	0.308	0.882	1.19	0.93	0.805	0.976	1.27	1.17	0.845	1.12	0.68
NCI-H1793	0.3	0.286	0.402	0.323	0.403	0.616	0.41	0.55	0.421	0.416	1.02	0.852	0.505	0.797	0.582	0.835	0.571	0.392	0.671	0.529
